The values that follow come from patent US20240317746A1, “CRYSTALLINE FORMS OF AN AZETIDINE PARP1 INHIBITOR” (XinThera, Inc., priority 2023, published 2024).

Structures are written as SMILES. Where “and” joins values, the source holds several entries; their conditions need not be identical. Equal values may be shown once. Entries after “also recorded” stand apart in the source; their conditions may differ. Where a name gives a salt, the structure may show the parent alone.

What all share (assay type): physicochemical
Data set [1] is described as follows: DVS test (dynamic vapor sorption, hygroscopicity). The note with it: for hygroscopicity (in words): DVS. As to the method:
All the three target forms remained no change after DVS test.
Dynamic Vapor Sorption (DVS) was used to study hygroscopicity on Model Q5000 SA (TA Instruments, New Castle, DE). A sample (1-10 mg) was placed in an aluminum pan and loaded on the sample side of the twin pan balance. The water sorption and desorption were studied as a function of relative humidity (RH) at 25° C. in 10% RH increments from 0% RH to 90% RH and then back to 0%. […] Data analysis was performed using Universal Analysis 2000 Version 4.7A (TA Instruments, New Castle, DE).

The nature of data set [2]: Solubility in bio-relevant media (SGF, FaSSIF, FeSSIF) and water. As to conditions: for XRPD 0.5 h / XRPD 2 h / XRPD 24 h: filter cake; for solubility compared to Freebase Form I (in words): water, FaSSIF and FeSSIF, 37° C. The method, then: At 0.5, 2 and 24 hours, about 0.6 mL of each suspension was filtered, the filtrate was analyzed by HPLC and pH meter, and the filter cake was analyzed by XRPD. The samples were prepared in duplicate (n=2) per condition. Average value (n=2) was presented.
HPLC analysis was performed with an Agilent HPLC 1260 series instrument.

Data set [3] can be described thus: Solid-state stability at 60° C. (capped) and 40° C./75% RH (open). As to conditions: for XRPD - 7 d / physical and chemical stability: 7 days; for physical and chemical stability: 60° C. (capped) and 40° C./75% RH (open); for Initial Purity: before storage, HPLC. As to the method: (capped) and 40° C./75% RH (open) for 7 days. Duplicate samples were prepared at each condition. The stability sample was dissolved in diluent to prepare solution at ˜1 mg/mL for HPLC purity analysis. Solid samples were analyzed by XRPD to check the crystal form. […] (capped) and 40° C./75% RH (open) for at least 7 days.

Setting [4] is: FaSSIF, initial pH 6.45, 37° C., average n=2.
Setting [5] is: FaSSIF, initial pH 6.45, filtrate.
The mark [6] stands for this setting: FeSSIF, initial pH 4.99, 37° C., average n=2.
[7] abbreviates: FeSSIF, initial pH 4.99, filtrate.
The mark [8] stands for this setting: Water, initial pH 5.41, 37° C., average n=2.
[9] abbreviates: Water, initial pH 5.41, filtrate.
Setting [10] is: in FaSSIF and FeSSIF, XRPD of filter cake.

Take `C[C@@H]1[C@@H](Oc2ccc(C(=O)NC3CC3)nc2)CN1Cc1cnc2cc(Cl)c(=O)[nH]c2c1` [L-Tartrate Salt Form II, 5-(((2R,3S)-1-((7-chloro-6-oxo-5,6-dihydro-1,5-naphthyridin-3-yl)methyl)-2-methylazetidin-3-yl)oxy)-N-cyclopropylpicolinamide]: the “hygroscopicity (in words)” value in data set [1] is reported as “hygroscopic”. Besides, in data set [1] (from 0 to 90% RH at 25° C.), the water uptake result is “about 10.2%”.
With `C[C@@H]1[C@@H](Oc2ccc(C(=O)NC3CC3)nc2)CN1Cc1cnc2cc(Cl)c(=O)[nH]c2c1` [Hemiedisylate Salt Form II, 5-(((2R,3S)-1-((7-chloro-6-oxo-5,6-dihydro-1,5-naphthyridin-3-yl)methyl)-2-methylazetidin-3-yl)oxy)-N-cyclopropylpicolinamide], the “hygroscopicity (in words)” value in data set [1] is “hygroscopic”. For the same compound, the water uptake result in data set [1] (from 0 to 90% RH at 25° C.) is reported as “about 3.6%”.
On the same counts, the results for `C[C@@H]1[C@@H](Oc2ccc(C(=O)NC3CC3)nc2)CN1Cc1cnc2cc(Cl)c(=O)[nH]c2c1` [Sulfate Salt Form III, 5-(((2R,3S)-1-((7-chloro-6-oxo-5,6-dihydro-1,5-naphthyridin-3-yl)methyl)-2-methylazetidin-3-yl)oxy)-N-cyclopropylpicolinamide] are “hygroscopic” and “about 6%”.
With `C[C@@H]1[C@@H](Oc2ccc(C(=O)NC3CC3)nc2)CN1Cc1cnc2cc(Cl)c(=O)[nH]c2c1` [Tartrate Form I, 5-(((2R,3S)-1-((7-chloro-6-oxo-5,6-dihydro-1,5-naphthyridin-3-yl)methyl)-2-methylazetidin-3-yl)oxy)-N-cyclopropylpicolinamide], the “XRPD 0.5 h” value was “Amorphous” in data set [2] (FaSSIF), “Amorphous” in data set [2] (FeSSIF) and “Unchanged” in data set [2] (Water). The “XRPD 2 h” value is on record as “FB Form I” in data set [2] (FaSSIF), “FB Form I” in data set [2] (FeSSIF) and “Unchanged” in data set [2] (Water). Moreover, the “XRPD 24 h” value in data set [2] (FaSSIF) and in data set [2] (FeSSIF) was “FB Form I” each time. Moreover, the “Solubility 0.5 h” value in data set [2] (setting [4]) is 2.088 mg/mL; in data set [2] (setting [6]), 0.496 mg/mL; in data set [2] (setting [8]) it was 4.288 mg/mL. Besides, the “Solubility 2 h” value in data set [2] (setting [4]) was 1.320 mg/mL; in data set [2] (setting [6]), 0.207 mg/mL; in data set [2] (setting [8]) it was 4.422 mg/mL. Further, the figures for the “Solubility 24 h” value in data set [2] (setting [4]), in data set [2] (setting [6]) and in data set [2] (setting [8]) were 0.980 mg/mL, 0.144 mg/mL and 0.293 mg/mL, respectively. For the same compound, the “pH 0.5 h” value in data set [2] (setting [5]) was 3.98; in data set [2] (setting [7]), 4.71; in data set [2] (SGF, initial pH 1.23, filtrate), 1.32; in data set [2] (setting [9]) it was 3.63. The “pH 2 h” value in data set [2] (setting [5]) is reported as 3.81; in data set [2] (setting [7]), 4.71; in data set [2] (SGF, initial pH 1.23, filtrate), 1.17; in data set [2] (setting [9]), 3.58. Besides, the “pH 24 h” value in data set [2] (setting [5]) is 3.69; in data set [2] (setting [7]), 4.70; in data set [2] (SGF, initial pH 1.23, filtrate), 1.25; in data set [2] (setting [9]) it was 3.73. The “XRPD 0.5 h, 2 h, 24 h” value in data set [2] (SGF) was “Clear”. For the same compound, in data set [2] (SGF, initial pH 1.23, 37° C.), the “Solubility 0.5 h, 2 h, 24 h” value was over 5 mg/mL. In addition, the figures for the “form change of the solid” value in data set [2] (setting [10]) and in data set [2] (in water at 24 h) were “dissociated into Freebase Form I” and “converted into a new pattern”, respectively. The “conversion rate to the freebase (in words)” value in data set [2] (in FaSSIF and FeSSIF, compared with Maleate Form IV) is given as “slower conversion rate; also recorded: slower form conversion”. Besides, the “solubility compared to Freebase Form I (in words)” value in data set [2] was “improved solubility”. Moreover, the “XRPD - 7 d” value in data set [3] (40° C./75% RH (open)) and in data set [3] (60° C. (capped)) was “Unchanged” throughout. Besides, the “physical and chemical stability” value in data set [3] is “physically and chemically stable”. Moreover, in data set [3], the “Initial Purity” value is 99.64 area %. For the same compound, the “hygroscopicity (in words)” value in data set [1] and in data set [1] (listed as Tartrate Salt Form I) was “slightly hygroscopic” in each case. In addition, the water uptake in data set [1] (at 80% RH) was < 1% and 0.8%; in data set [1] (at 90% RH), 1.4%; in data set [1] (from 0 to 90% RH at 25° C., listed as Tartrate Salt Form I), “about 1.1%”.
As to `C[C@@H]1[C@@H](Oc2ccc(C(=O)NC3CC3)nc2)CN1Cc1cnc2cc(Cl)c(=O)[nH]c2c1` [L-Malate Salt Form II, 5-(((2R,3S)-1-((7-chloro-6-oxo-5,6-dihydro-1,5-naphthyridin-3-yl)methyl)-2-methylazetidin-3-yl)oxy)-N-cyclopropylpicolinamide], in data set [1], the “hygroscopicity (in words)” value is on record as “hygroscopic”. In data set [1] (from 0 to 90% RH at 25° C.), the water uptake entry is reported as “about 4.6%”.
With `C[C@@H]1[C@@H](Oc2ccc(C(=O)NC3CC3)nc2)CN1Cc1cnc2cc(Cl)c(=O)[nH]c2c1` [Maleate Form IV, 5-(((2R,3S)-1-((7-chloro-6-oxo-5,6-dihydro-1,5-naphthyridin-3-yl)methyl)-2-methylazetidin-3-yl)oxy)-N-cyclopropylpicolinamide], the “XRPD 0.5 h” value in data set [2] (FaSSIF) and in data set [2] (FeSSIF) was “FB Form I” each time. The “XRPD 2 h” value in data set [2] (FaSSIF) and in data set [2] (FeSSIF) was “FB Form I” throughout. The “XRPD 24 h” value in data set [2] (FaSSIF) and in data set [2] (FeSSIF) was “FB Form I” in each case. Besides, the “Solubility 0.5 h” value is 0.397 mg/mL in data set [2] (setting [4]), 0.369 mg/mL in data set [2] (setting [6]) and 4.527 mg/mL in data set [2] (setting [8]). Moreover, the “Solubility 2 h” value is on record as 0.410 mg/mL in data set [2] (setting [4]), 0.159 mg/mL in data set [2] (setting [6]) and 4.494 mg/mL in data set [2] (setting [8]). For the same compound, the “Solubility 24 h” value in data set [2] (setting [4]) worked out at 0.373 mg/mL; in data set [2] (setting [8]), 3.797 mg/mL. In addition, the “pH 0.5 h” value in data set [2] (setting [5]) is 4.58; in data set [2] (setting [7]), 4.82; in data set [2] (SGF, initial pH 1.23, filtrate) it was 1.33; in data set [2] (setting [9]), 3.81. For the same compound, the “pH 2 h” value in data set [2] (setting [5]) worked out at 4.46; in data set [2] (setting [7]) it was 4.82; in data set [2] (SGF, initial pH 1.23, filtrate), 1.17; in data set [2] (setting [9]), 3.75. Besides, the “pH 24 h” value came out at 4.43 in data set [2] (setting [5]); 4.79 in data set [2] (setting [7]); 1.22 in data set [2] (SGF, initial pH 1.23, filtrate); 3.90 in data set [2] (setting [9]). The solubility (commonly the dissolved amount per volume that the medium holds) at 24 h in data set [2] (FeSSIF, 37 °C, pH 4.99, fessif, thermodynamic from solid, initial pH 4.99, 37° C., average n=2) was found to be 0.131 mg/mL. Also, the “XRPD 0.5 h, 2 h, 24 h” value in data set [2] (SGF) is given as “Clear”; in data set [2] (Water) it was “Little solid”. The solubility in data set [2] (SGF, 37 °C, pH 1.23, simulated gastric fluid, thermodynamic from solid, SGF, initial pH 1.23, 37° C., read-out: Solubility 0.5 h, 2 h, 24 h) was over 5 mg/mL. For the same compound, the “form change of the solid” value in data set [2] (setting [10]) was “dissociated into Freebase Form I”. For the same compound, the “solubility compared to Freebase Form I (in words)” value in data set [2] was “improved solubility”. Also, the “XRPD - 7 d” value in data set [3] (40° C./75% RH (open)) and in data set [3] (60° C. (capped)) was “Unchanged” each time. Moreover, in data set [3], the “physical and chemical stability” value was “physically and chemically stable”. The “Initial Purity” value in data set [3] is on record as 99.72 area %. Also, in data set [1], the “hygroscopicity (in words)” value is “slightly hygroscopic”. In addition, the water uptake was < 1% and 0.6% in data set [1] (at 80% RH); 0.9% in data set [1] (at 90% RH).
